Data from ChEMBL document CHEMBL1134426, “Derivatives of 17-(2-methylallyl)-substituted noroxymorphone: variation of the delta address and its effects on affinity and selectivity for the delta opioid receptor” (Bioorg Med Chem Lett, 2001).

Key:
[1] = target: Opioid receptors; delta & kappa (Homo sapiens) (UniProt P41145+P41143); experiment: Selectivity ratio for kappa and delta opioid receptor binding; assay type: protein assay
[2] = target: Kappa-type opioid receptor (Homo sapiens, UniProt P41145); experiment: Displacement of [3H]U-69593 from Opioid receptor kappa 1
Sequence of Kappa-type opioid receptor (P41145 whole entry): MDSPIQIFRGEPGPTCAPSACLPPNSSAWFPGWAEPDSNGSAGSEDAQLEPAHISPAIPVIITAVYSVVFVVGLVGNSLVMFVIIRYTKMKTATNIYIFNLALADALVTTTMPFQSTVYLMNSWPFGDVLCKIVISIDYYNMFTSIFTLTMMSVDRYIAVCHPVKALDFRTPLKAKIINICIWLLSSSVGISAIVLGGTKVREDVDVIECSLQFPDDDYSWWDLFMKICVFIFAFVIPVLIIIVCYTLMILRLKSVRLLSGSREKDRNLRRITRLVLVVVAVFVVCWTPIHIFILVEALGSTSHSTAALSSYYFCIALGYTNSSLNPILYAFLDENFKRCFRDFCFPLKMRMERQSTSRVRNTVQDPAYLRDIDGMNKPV

[3] = target: Delta-type opioid receptor (Homo sapiens, UniProt P41143); experiment: Displacement of [3H]DADLE from Opioid receptor delta 1
Sequence of Delta-type opioid receptor (P41143 whole entry): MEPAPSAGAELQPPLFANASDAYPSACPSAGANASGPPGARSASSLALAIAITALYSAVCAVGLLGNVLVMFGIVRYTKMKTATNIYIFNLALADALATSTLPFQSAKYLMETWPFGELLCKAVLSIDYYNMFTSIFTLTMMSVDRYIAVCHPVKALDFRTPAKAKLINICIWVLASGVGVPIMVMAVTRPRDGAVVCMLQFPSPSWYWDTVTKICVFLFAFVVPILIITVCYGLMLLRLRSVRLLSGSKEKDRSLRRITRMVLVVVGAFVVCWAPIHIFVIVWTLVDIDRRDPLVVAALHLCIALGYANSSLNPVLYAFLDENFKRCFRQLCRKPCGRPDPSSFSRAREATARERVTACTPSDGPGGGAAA

Mu-type opioid receptor = Mu-type opioid receptor (Homo sapiens, UniProt P35372); experiment: Displacement of [3H]DAMGO from Opioid receptor mu 1
Sequence of Mu-type opioid receptor (P35372 whole entry): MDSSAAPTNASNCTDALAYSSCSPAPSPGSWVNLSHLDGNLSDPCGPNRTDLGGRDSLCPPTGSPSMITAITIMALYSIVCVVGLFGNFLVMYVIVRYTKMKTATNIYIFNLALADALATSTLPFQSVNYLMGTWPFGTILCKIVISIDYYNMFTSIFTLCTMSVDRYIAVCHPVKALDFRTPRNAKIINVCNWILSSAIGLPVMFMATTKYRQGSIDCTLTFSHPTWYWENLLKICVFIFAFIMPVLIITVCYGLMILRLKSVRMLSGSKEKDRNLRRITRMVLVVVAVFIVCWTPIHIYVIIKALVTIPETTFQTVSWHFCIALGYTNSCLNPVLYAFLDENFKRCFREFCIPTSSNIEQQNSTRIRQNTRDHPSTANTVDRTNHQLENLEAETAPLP

[4] = target: Opioid receptors; mu & delta (Homo sapiens) (UniProt P41143+P35372); experiment: Selectivity ratio for mu and delta opioid receptor binding; assay type: protein assay
Sequence of Opioid receptors; mu & delta (Homo sapiens) (P35372 whole entry, looked up): as the sequence (P35372 whole entry) above
Sequence of Opioid receptors; mu & delta (Homo sapiens) (P41143 whole entry, looked up): as the sequence (P41143 whole entry) above

Sequence of Opioid receptors; delta & kappa (Homo sapiens) (P41143 whole entry, looked up): as the sequence (P41143 whole entry) above
Sequence of Opioid receptors; delta & kappa (Homo sapiens) (P41145 whole entry, looked up): as the sequence (P41145 whole entry) above

| Structure (SMILES) | Selectivity ratio [1] | Ki [2] [nM] | Ki [3] [nM] | Ki (Mu-type opioid receptor) [nM] | Selectivity ratio [4] |
| --- | --- | --- | --- | --- | --- |
| C=C(C)CN1CCC23c4c5ccc(O)c4O[C@H]2c2[nH]c4ccccc4c2C[C@@]3(O)C1C5 (stereo partly drawn) | 810 | 3800 | 4.7 | 7900 | 1700 |
| C=C(C)CN1CCC23c4c5ccc(OC)c4O[C@H]2C(=O)C2(Cc4ccccc4C2)C[C@@]3(O)C1C5 (stereo partly drawn) |  | > 7000 | > 7200 | > 6000 |  |
| C=C(C)CN1CCC23c4c5ccc(OC)c4O[C@H]2c2n[nH]cc2C[C@@]3(O)C1C5 (stereo partly drawn) | 1 |  |  |  | > 2 |
| C=C(C)CN1CCC23c4c5ccc(OC)c4O[C@H]2C(=O)/C(=C/c2ccccc2)C[C@@]3(O)C1C5 (stereo partly drawn) | > 2 | > 7000 | 3400 | > 6000 | > 1 |
| C=C(C)CN1CCC23c4c5ccc(O)c4O[C@H]2c2ncc(-c4ccc(Cl)cc4)cc2C[C@@]3(O)C1C5 (stereo partly drawn) | 19 | 300 | 16 | > 6000 | > 380 |
| C=C(C)CN1CCC23c4c5ccc(O)c4O[C@H]2C(=O)C2(Cc4ccccc4C2)C[C@@]3(O)C1C5 (stereo partly drawn) | 24 | 1000 | 41 | 2000 | 49 |
| C=C(C)CN1CCC23c4c5ccc(O)c4O[C@H]2C(=O)/C(=C/c2ccccc2)C[C@@]3(O)C1C5 (stereo partly drawn) | 21 | 4500 | 210 | 4500 | 21 |
| C=C(C)CN1CCC23c4c5ccc(O)c4O[C@H]2c2oc4ccccc4c2C[C@@]3(O)C1C5 (stereo partly drawn) | 71 | 580 | 8.2 | 1300 | 160 |
| C=C(C)CN1CCC23c4c5ccc(OC)c4O[C@H]2c2ncc(-c4ccc(Cl)cc4)cc2C[C@@]3(O)C1C5 (stereo partly drawn) | 12 | 3200 | 260 | > 6000 | 23 |
| C=C(C)CN1CCC23c4c5ccc(OC)c4O[C@H]2c2[nH]ncc2C[C@@]3(O)C1C5 (stereo partly drawn) |  | 3100 | 2400 | > 6000 |  |
| C=C(C)CN1CCC23c4c5ccc(O)c4O[C@H]2c2n[nH]cc2C[C@@]3(O)C1C5 (stereo partly drawn) | 1 |  |  |  | 4 |
| C=C(C)CN1CCC23c4c5ccc(OC)c4O[C@H]2c2oc4ccccc4c2C[C@@]3(O)C1C5 (stereo partly drawn) | 230 | > 10000 | 44 | > 6000 | 140 |
| C=C(C)CN1CCC23c4c5ccc(O)c4O[C@H]2c2[nH]ncc2C[C@@]3(O)C1C5 (stereo partly drawn) |  | 38 | 40 | 140 |  |
| C=C(C)CN1CCC23c4c5ccc(OC)c4O[C@H]2c2[nH]c4ccccc4c2C[C@@]3(O)C1C5 (stereo partly drawn) | > 28 | > 14000 | 500 | > 6000 | > 12 |
